Data as given in patent US20100048693A1, “Treatment of COPD” (The Regents of the University of Colorado, A Body Corporate, priority 2006, published 2010).
Entries after “also recorded” stand apart in the source; their conditions may differ.

Legend:
Assay type in all cases: cell-based, human
[1] = test system: COX-2 gene expression; experiment: Real time RT-PCR of COX-2 gene expression in HPMVEC; conditions: for COX-2 gene expression after aldehyde exposure: HPMVEC, 1 and 10 μM acrolein; for effect of pre-incubation on COX-2 gene expression in CSE-exposed cells: four hour pre-incubation (SOD mimetic 100 U/ml, catalase 100 U/ml, DPI 0.1 μM, L-NAME 1 mM), 1% CSE for 4 hours
Description: (§1) Human pulmonary microvascular endothelial cells (HPMVEC, passage 4-6) and EGM-2-MV medium (containing 5% FBS, hydrocortisone, human recombinant VEGF, recombinant human fibroblast growth factor-B, recombinant insulin-like growth factor-1, human recombinant epidermal growth factor, ascorbic acid, gentamycin and amphotericin-B) were purchased from Clonetics Corporation (Baltimore, Md., USA). Cells were grown to confluency at 37° C. in a humidified atmosphere of 21% O2, 5% CO2. N-acetyl-L-cysteine (NAC) and diphenyleneiodonium chloride (DPI) were obtained from Sigma-Aldrich (St. Louis, Mo., USA). N-nitro-l-arginine methyl ester (L-NAME) was obtained from Cayman Chemical (Ann Arbor, Mich.). Z-Asp2,6-dichlorobenzoylmethylketone (Caspase Family Inhibitor IV) was obtained from Alexis Biochemicals (San Diego, Calif., USA). Both an SOD mimetic and catalase were obtained from National Jewish Medical Center. Acrolein, an α,β-unsaturated aldehyde, and several […] aldehydes (acetaldehyde, crotonaldehyde, proprionaldehyde (i.e., propanal) were purchased from Sigma Aldrich (St. Louis, Mo., USA)
(§2) Cigarette smoke extract was prepared by a modification of a previously published method, e.g., Carp et al., Am. Rev. Respir. Dis., 1978, 118, 617-621. Briefly, one non-filtered Camel cigarette (R.J. Reynolds, Winston-Salem, N.C.) was passed through 10 mL of Phosphate-buffered saline (PBS) using a vacuum pump. This 100% CSE was adjusted to pH 7.4 and filtered through a […] pore filter (Fisher, Hampton, N.H., USA) and the CSE was diluted to the appropriate concentration and added to endothelial cells within 10 min of preparation.
(§3) Total RNA was extracted using the RNeasy Mini Kit (Qiagen, Valencia, Calif.), following the manufacturer's instructions. 1 μg of RNA was reverse-transcribed using random primer and MultiScribe RT (High-Capacity cDNA Archive Kit, Applied Biosystems, Foster City, Calif.). Assay-on-demand gene expression probe for PGI2S: Hs00168766, COX-1:Hs00377721, COX-2:Hs00153133, cPLA2:Hs00233352, and β-actin: Hs999999903 were obtained from Applied Biosystems (Foster City, Calif.) PCR reactions were performed in 20 μL volumes containing 9 μL of cDNA, 10 μL of TaqMan Master Mix (Applied Biosystems) and 1 μL of assay-on-demand primer and probe. Real-time PCR was conducted on the Applied Biosystems GeneAmp 5700 sequence Detection System and signal was detected by the GeneAmp 5700 SDS software (Applied Biosystems). All values were reported relative to β-Actin expression.

[2] = test system: PGI2S gene expression; experiment: Real time RT-PCR of PGI2S gene expression in HPMVEC; conditions: for PGI2S gene (mRNA) expression after aldehyde exposure: HPMVEC, 1 and 10 μM aldehyde, about 24 hours after exposure; for effect of pre-incubation on PGI2S gene expression in CSE-exposed cells: four hour pre-incubation (SOD mimetic 100 U/ml, catalase 100 U/ml, DPI 0.1 μM, L-NAME 1 mM), 1% CSE for 4 hours
Description: as §1, §2, §3

[3] = test system: HPMVEC; experiment: Caspase 3/7 assay of apoptosis in HPMVEC exposed to CSE; conditions: HPMVEC pre-treated with Iloprost 1 μM and 10 μM for 30 minutes prior to CSE exposure
Description: Human pulmonary microvascular endothelial cells (HPMVEC, passage 4-6) and EGM-2-MV medium (containing 5% FBS, hydrocortisone, human recombinant VEGF, recombinant human fibroblast growth factor-B, recombinant insulin-like growth factor-1, human recombinant epidermal growth factor, ascorbic acid, gentamycin and amphotericin-B) were purchased from Clonetics Corporation (Baltimore, Md., USA). Cells were grown to confluency at 37° C. in a humidified atmosphere of 21% O2, 5% CO2. N-acetyl-L-cysteine (NAC) and diphenyleneiodonium chloride (DPI) were obtained from Sigma-Aldrich (St. Louis, Mo., USA). N-nitro-l-arginine methyl ester (L-NAME) was obtained from Cayman Chemical (Ann Arbor, Mich.). […]
Immunohistochemical staining on both PGI2S transgenic mice and wild type littermates was conducted using similar protocols to the above, however, cleaved caspase 3 antibody (Cell Signaling technology Danvers, Mass.) was used to assess apoptosis. In a blinded fashion, small, medium and large pulmonary arteries were scored for endothelial caspase staining. In-vitro, the rate of apoptosis in primary human microvascular endothelial cells was analyzed by the Vybrant Apoptosis Assay Kit from Molecular Probes Inc. (Eugene, Oreg., USA) according to the manufacturer's protocol. […] In addition, apoptosis of HPMVEC was assessed by Caspase 3/7 assay according to the protocol provided (Promega Madison, Wis.).

[4] = test system: PGI2S protein expression; experiment: Western blotting of PGI2S protein expression in HPMVEC; conditions: about 48 hours post exposure
Description: as §1
20 μg of protein was separated on NuPAGE Novex 4-12% Bis-Tris Gel (Invitrogen Carlsbad, Calif., USA) and transferred to a polyvinylidene fluoride (PVDF) membrane (Invitrogen, Carlsbad, Calif., USA). The membrane was blocked with 5% nonfat dry milk in PBS containing 0.05% Tween (PBST) for 1 hour. […]

Compound: CC(=O)N[C@@H](CS)C(=O)O [NAC, N-acetyl-L-cysteine]
- effect on CSE mediated induction of COX-2 gene expression ([1]; HPMVEC pre-incubated four hours with 1 mM NAC, then 1% CSE, P<0.05): significantly reduce or prevent
- prevention of down-regulation of PGI2S gene expression by 1% CSE ([2]; HPMVEC pre-incubated four hours with 1 mM NAC, then 1% CSE, RT-PCR at four hours and 24 hours): no significant prevention

Compound: CC#CCC(C)[C@H](O)/C=C/[C@@H]1[C@H]2C/C(=C/CCCC(=O)O)C[C@H]2C[C@H]1O (stereo partly drawn) [Iloprost]
- endothelial apoptosis as measured by caspase 3/7 activity [3]: significant reduction; also recorded: at least partial protective anti-apoptotic effect

Compound: C=CC=O [Acrolein]
- COX-2 gene expression after aldehyde exposure [1]: trend toward induction
- COX-2 gene expression after aldehyde exposure ([1]; listed as acrolein): No significant change
- PGI2S protein expression after aldehyde exposure [4]: suppressed
- PGI2S gene (mRNA) expression after aldehyde exposure [2]: reduction in PGI2S gene expression

Compound: C/C=C/C=O [crotonaldehyde]
- PGI2S gene (mRNA) expression after aldehyde exposure [2]: did not result in suppression

Compound: catalase
- effect of pre-incubation on COX-2 gene expression in CSE-exposed cells [1]: did not significantly affect
- effect of pre-incubation on PGI2S gene expression in CSE-exposed cells [2]: did not significantly affect

Compound: CC=O [acetaldehyde]
- PGI2S gene (mRNA) expression after aldehyde exposure [2]: did not result in suppression

Compound: c1ccc2c(c1)[I+]c1ccccc1-2 [DPI, diphenyleneiodonium chloride]
- effect of pre-incubation on COX-2 gene expression in CSE-exposed cells [1]: did not significantly affect
- effect of pre-incubation on PGI2S gene expression in CSE-exposed cells [2]: did not significantly affect

Compound: CCC=O [propionaldehyde]
- PGI2S gene (mRNA) expression after aldehyde exposure [2]: did not result in suppression
- PGI2S gene (mRNA) expression after aldehyde exposure ([2]; listed as Propionaldehyde): statistically significant induction
